Structures are written as SMILES.

Assay [1] deals with DNA (cytosine-5)-methyltransferase 3B (Homo sapiens, UniProt Q9UBC3). The experiment in a line: Inhibition of human recombinant DNMT3B expressed in baculovirus-insect cell system by scintillation counting.
Assay [2] has as its target DNA (cytosine-5)-methyltransferase 1 (Homo sapiens, UniProt P26358). The experiment in a line: Inhibition of human recombinant DNMT1 expressed in baculovirus-insect cell system by scintillation counting.

Sequence of DNA (cytosine-5)-methyltransferase 1 (P26358 whole entry): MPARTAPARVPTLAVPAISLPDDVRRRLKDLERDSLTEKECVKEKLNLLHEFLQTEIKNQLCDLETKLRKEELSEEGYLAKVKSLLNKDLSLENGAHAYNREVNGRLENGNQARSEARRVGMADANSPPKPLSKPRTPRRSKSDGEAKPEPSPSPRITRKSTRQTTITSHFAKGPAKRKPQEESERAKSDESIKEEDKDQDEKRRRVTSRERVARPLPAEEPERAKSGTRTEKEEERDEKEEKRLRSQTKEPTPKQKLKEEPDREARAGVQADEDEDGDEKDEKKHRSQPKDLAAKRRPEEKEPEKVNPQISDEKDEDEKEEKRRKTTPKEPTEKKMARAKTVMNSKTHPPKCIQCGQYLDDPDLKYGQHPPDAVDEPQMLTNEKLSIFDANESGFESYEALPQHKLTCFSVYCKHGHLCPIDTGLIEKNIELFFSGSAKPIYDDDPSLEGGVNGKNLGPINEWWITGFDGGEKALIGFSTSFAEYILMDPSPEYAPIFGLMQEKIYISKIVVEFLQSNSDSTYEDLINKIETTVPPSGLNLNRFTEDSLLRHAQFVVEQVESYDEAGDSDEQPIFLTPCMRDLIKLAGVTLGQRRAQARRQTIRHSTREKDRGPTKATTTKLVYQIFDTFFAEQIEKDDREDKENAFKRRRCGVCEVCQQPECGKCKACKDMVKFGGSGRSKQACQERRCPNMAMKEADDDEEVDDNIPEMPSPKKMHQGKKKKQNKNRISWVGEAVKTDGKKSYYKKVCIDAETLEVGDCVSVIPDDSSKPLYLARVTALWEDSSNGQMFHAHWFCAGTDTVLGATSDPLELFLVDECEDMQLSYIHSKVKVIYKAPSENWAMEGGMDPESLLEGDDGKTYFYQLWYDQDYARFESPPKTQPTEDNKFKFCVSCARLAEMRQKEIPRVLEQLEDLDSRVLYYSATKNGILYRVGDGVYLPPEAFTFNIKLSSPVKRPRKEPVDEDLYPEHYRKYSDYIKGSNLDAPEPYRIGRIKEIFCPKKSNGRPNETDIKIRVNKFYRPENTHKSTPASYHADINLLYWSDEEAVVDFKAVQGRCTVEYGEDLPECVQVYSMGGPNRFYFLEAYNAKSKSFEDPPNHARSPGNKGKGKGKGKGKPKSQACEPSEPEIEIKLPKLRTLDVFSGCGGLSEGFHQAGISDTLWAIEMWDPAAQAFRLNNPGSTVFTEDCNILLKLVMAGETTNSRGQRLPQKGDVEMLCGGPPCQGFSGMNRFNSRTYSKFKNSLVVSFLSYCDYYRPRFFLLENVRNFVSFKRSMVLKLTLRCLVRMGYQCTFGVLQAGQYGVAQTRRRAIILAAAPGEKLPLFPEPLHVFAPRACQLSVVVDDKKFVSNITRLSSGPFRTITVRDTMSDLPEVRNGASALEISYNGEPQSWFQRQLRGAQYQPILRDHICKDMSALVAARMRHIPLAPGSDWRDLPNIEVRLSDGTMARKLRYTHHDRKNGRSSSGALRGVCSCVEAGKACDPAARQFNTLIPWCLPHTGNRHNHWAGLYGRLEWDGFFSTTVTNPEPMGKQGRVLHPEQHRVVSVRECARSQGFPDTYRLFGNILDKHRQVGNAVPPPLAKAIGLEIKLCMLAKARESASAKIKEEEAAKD

What is called IC50 is the concentration needed to halve the response being measured. Turning to `O=C(O)COc1ccc(C(=O)c2cc(Br)ccc2OCC(=O)O)cc1`, the values for the IC50 result in assay [1] and in assay [2] (read-out: IC50) were “Not Active” and 212 µM, respectively.
For the compound `O=C(O)CCCC(C(=O)O)N1C(=O)c2ccccc2C1=O` (stereo not given), the IC50 entry in assay [1] and in assay [2] was “Not Active” in each case.
Regarding `Nc1ncnc2c1ncn2[C@@H]1O[C@H](CSCC[C@H](N)C(=O)O)[C@@H](O)[C@H]1O` [S-ADENOSYLHOMOCYSTEINE], the IC50 in assay [1] (read-out: IC50) amounted to 0.25 µM.

The record behind these values is ChEMBL document CHEMBL1157722, “Novel and selective DNA methyltransferase inhibitors: Docking-based virtual screening and experimental evaluation” (Bioorg Med Chem, 2010).
